Experimental findings from patent publication US8551958B2, “Galactosylated pro-drugs of non-steroidal anti-inflammatories with improved pharmacokinetic characteristics and reduced toxicity of the starting drug” (Stewart Italia Srl, priority 2008, dated 2013) are described below.

Each structure is given as a SMILES string. Entries after “also recorded” stand apart in the source; their conditions may differ.

For data set [1], the system named is mouse carrageenan paw oedema. Briefly: Carrageenan oedema test. In kind it is in vivo, mice. How it is done: Anti-inflammatory activity was tested by means of the carrageenan oedema test. The mice were divided into groups of six. The initial volumes of the leg of all the animals were measured using a plethysmometer. The oedema is induced in the leg by means of sub-plantar injection of 50 μl of saline solution containing 1% of carrageenan. The volume of the leg was measured at different time intervals. Said experimental model consists of two phases: a first, acute, phase lasting 6 hours and a second, chronic, phase, up to 72 hours.
The anti-inflammatory activity of the physical mixture of ketorolac and galactose was evaluated with the carrageenan induced mice hind paw edema assay, as described for ketogal. […]
The carrageenan induced mice hind paw oedema assay described by D'Agostino et al. (2007) was used to evaluate the acute anti-inflammatory activity of the conjugate. Mice were divided into control and test groups of six animals each. Initial paw volumes of all animals were measured using a plethysmometer apparatus (Ugo Basile, Milan, Italy) before treatment. Paw oedema was induced by a subplantar injection of 50 μL of saline containing 1% λ-carrageenan into the right hind paw. […] free acid and ketogal were orally administrated 1 h before carrageenan challenge. Paw volume was measured at different time intervals by plethysmometer. The increase in paw volume was evaluated as the difference between the paw volume measured at each time point and the basal paw volume measured immediately before carrageenan injection.
For orientation: In the carrageenan paw model, swelling and tenderness develop within hours.

The nature of data set [2]: Pharmacokinetic studies (plasma, stomach, kidney, liver). The data set is classed as in vivo, Wistar rats. Here is the method: The pharmacokinetic profile of Ketogal and of ketorolac was evaluated in Wistar rats by measuring the concentration of the two compounds in the plasma, in the stomach, in the kidney, and in the liver. The rats received ketorolac (0.100 mg/kg) or Ketogal (0.163 mg/kg) by oral route and were sacrificed after 1 h, 2 h, 4 h, and 6 h from administration. The various specimens were treated with acetonitrile, and the suspension was “vortexed” and centrifuged at 3000 r.p.m. for 10 min. The organic phase was injected in the same HPLC system used for the stability assays.

The subject of a further data set is COX-1. Briefly: Western blot, stomach, COX-1 protein expression. The data set is classed as in vivo, mice. The settings on record: ketorolac 10 mg/Kg, ketogal 16.3 mg/Kg, oral, 3, 5 and 7 days; versus control stomachs. The text has this:
Animals were sacrificed and then liver, stomach and kidney were collected in glass tubes and analysed histologically and biochemically.
(In western blotting, separated proteins are transferred to a membrane and probed.)

Another data set relates to male Swiss mice. Briefly: Ulcerogenicity studies, ketorolac and Ketogal (gastric lesions). The settings on record: oral, Ketogal 16.3 mg/kg. In kind it is in vivo. Here is the method:
The gastric lesions were evaluated in male Swiss mice. To the fasted animals (16-18 h) were administered, by oral route, ketorolac (10 mg/kg), Ketogal (16.3 mg/kg), or the vehicle. After 4 hours, the mice were sacrificed and the stomach removed, cut along the major curvature, washed with physiological solution, and the mucous was examined for evaluation of the presence of petechias and/or gastric lesions. A “score” of 1 was assigned to the petechias, and a “score” based on the diameter (a “score” of 5 for lesions of a diameter of less than 1 mm; a “score” of 10 for lesions with a diameter of more than 1 mm) was, instead, assigned to the lesions.

Data set [3] relates to writhing induced by magnesium sulphate. Briefly: Writhing induced by magnesium sulphate (visceral pain). In kind it is in vivo, mouse. The settings on record: ketorolac 0.01 to 10 mg/kg, Ketogal in equimolar dose; 1 hour before magnesium sulphate 120 mg/kg. How it is done: In order to determine whether ketorolac and Ketogal are able to inhibit visceral pain, the effects of these compounds on “writhing” induced by magnesium sulphate were tested. Magnesium sulphate induces a reversible response when injected by intraperitoneal route in the mouse. The administration of 120 mg/kg of magnesium sulphate induces an average of 6±0.9 episodes of “writhing” in the mouse (n=6).
In general terms: An intraperitoneal irritant provokes the stretching counted in writhing tests.

`O=C(c1ccccc1)c1ccc2n1CC[C@@H]2C(=O)OCC1O[C@H](O)C(O)C(O)[C@H]1O` (mixture of isomers) [Ketogal, ketorolac-D-galactos-6′-yl ester]: in data set [1] (Ketogal 0.163 mg/kg versus ketorolac 0.1 mg/kg, oral and subcutaneous administration), the “Anti-inflammatory activity compared with ketorolac” value is “better analgesic and anti-inflammatory activity than ketorolac”. In addition, in data set [1] (Ketogal 0.163-16.3 mg/kg oral, 1 h prior to carrageenan), the “Oedema of the leg” value was “considerably reduces the oedema of the leg in a time-dependent and dose-dependent way”. The “Formation of oedema, first phase” value in data set [1] (Ketogal 0.163-16.3 mg/kg oral, first, acute phase (6 hours)) is on record as “all the doses tested inhibited formation of oedema”. Besides, the “Effect on oedema, second phase” value in data set [1] (Ketogal oral, second, chronic phase up to 72 hours) is “continued also in the second phase”. In addition, in data set [2] (compared with ketorolac), the Oral availability result is listed as “better oral availability than ketorolac; also recorded: increased the oral availability of ketorolac”. Further, in data set [2] (oral, Ketogal 0.163 mg/kg), the “Behaviour of the pro-drug in the stomach” value was “hydrolyses progressively, releasing ketorolac”; the “Presence of the pro-drug in plasma” value is “the pro-drug was not present”; the “Presence of the pro-drug in the kidney” value is “no traces of the pro-drug”; the “Presence of the pro-drug in the liver” value is on record as “Ketogal reappeared”. In addition, the “Concentration of ketorolac in the liver after Ketogal versus drug alone” value in data set [2] (oral, Ketogal 0.163 mg/kg versus ketorolac 0.100 mg/kg) is “always higher following upon administration of Ketogal”. The “Plasma levels of ketorolac after administration of Ketogal versus ketorolac as such” value in data set [2] (oral, Ketogal 0.163 mg/kg, ketorolac 0.100 mg/kg, 1 h, 2 h, 4 h, 6 h) is given as “higher than the ones observed following upon administration of the drug as such”. The “Gastric COX-1 protein expression” value with COX-1 was “not inhibited”. The “Gastrolesive properties (in words)” value in the data set with male Swiss mice (equimolar to ketorolac 10 mg/kg) is reported as “does not cause ulcers; also recorded: only a slight irritation of the gastric mucosa, with an almost total absence of ulcers”. This compound returned a Degree of ulcerogenicity with male Swiss mice (ketorolac 10.0 mg/kg, after 4 hours, score 1 petechias, 5 or 10 lesions) of 1. In the data set on male Swiss mice (ketorolac 10.0 mg/kg, fasted mice, after 4 hours), this compound displayed a Number of ulcers of 1 ± 0.4. For the same compound, the “Inhibition of writhing induced by magnesium sulphate” value in data set [3] was “able to inhibit this response in a dose-dependent way”.
